The values below come from ChEMBL document CHEMBL1152106, “Derivatives of 5-amidine indole as inhibitors of thrombin catalytic activity” (Bioorg Med Chem Lett, 1996).

One test addresses T1, Prothrombin (Homo sapiens, UniProt P00734). Briefly: Compound was evaluated for inhibition of human alpha-thrombin catalytic activity.
What is called IC50 is the concentration that gives 50% inhibition. A higher IC50 goes with a need for much substance. For the compound `N=C(N)c1ccc2[nH]c(-c3ccccc3)cc2c1`, the IC50 is 19 µM.
Still for that read-out and setting: next, `N=C(N)c1ccc2[nH]ccc2c1`: 22 µM; `Cc1c(-c2ccccc2)[nH]c2ccc(C(=N)N)cc12`: 66 µM; `NCc1ccc2[nH]c(C(Cc3ccccc3F)c3ccccc3F)cc2c1` (configuration not stated): 59 µM.
The same measure, in the same setting: next, `N=C(N)c1ccc2[nH]c(Cc3ccccc3F)cc2c1`: 36 µM.
Same read-out and setting: the figure for `N=C(N)c1ccc2[nH]c(Cc3cccc(CCc4ccccc4)c3)cc2c1` is 2.4 µM.
`N=C(N)c1ccc2[nH]c(Cc3cccc(Oc4ccccc4)c3)cc2c1`: the IC50 came out at 2 µM.
As for `N=C(N)c1ccc2[nH]c3c(c2c1)CCCC3`, the IC50 turned out to be 20 µM. Compared with the last compound, the IC50 is about 10-fold higher.
Same read-out and setting: the figure for `N=C(N)c1ccc2[nH]c(-c3ccccc3O)cc2c1` is 38 µM; for `N=C(N)c1ccc2[nH]c(C(Cc3ccccc3F)c3ccccc3F)cc2c1` (configuration not stated) it is 15 µM.
On to `N=C(N)c1ccc2[nH]c(Cc3ccccc3)cc2c1`, for which the IC50 came out at 1.4 µM.

The target in a further test is T1, Prothrombin. Nature of the test: Compound was evaluated for inhibition of human alpha-thrombin catalytic activity.
As usually defined, the Ki is the dissociation constant of the complex between target and ligand, obtained from inhibition or displacement. A lower Ki goes with a stronger hold on the target. In turn, `N=C(N)c1ccc2[nH]c(Cc3ccccc3)cc2c1` registered a Ki of 0.26 µM.
